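Grown in 96-well plates, cells were treated for 48 hours with each compound at five concentrations. Insufficient inhibition: endpoint recorded as highest concentration tested. GI50 marks 50% less growth. The concentration for full growth arrest is given as TGI.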
Columns and labels:
Assay in all cases: inhibition of tumour cell growth, NCI panel, 48 h
786-0 renal = system: 786-0 renal
A498 renal = system: A498 renal
A549 NSCLC = system: A549 NSCLC
ACHN renal = system: ACHN renal
BT-549 breast = system: BT-549 breast
CAKI-1 renal = system: CAKI-1 renal
CCRF-CEM leukemia = system: CCRF-CEM leukemia
COLO 205 colon = system: COLO 205 colon
DU-145 prostate = system: DU-145 prostate
EKVX NSCLC = system: EKVX NSCLC
HCC-2998 colon = system: HCC-2998 colon
HCT-116 colon = system: HCT-116 colon
HCT-15 colon = system: HCT-15 colon
HL-60(TB) leukemia = system: HL-60(TB) leukemia
HOP-62 NSCLC = system: HOP-62 NSCLC
HOP-92 NSCLC = system: HOP-92 NSCLC
HS 578T breast = system: HS 578T breast
HT29 colon = system: HT29 colon
IGROV1 ovarian = system: IGROV1 ovarian
K-562 leukemia = system: K-562 leukemia
KM12 colon = system: KM12 colon
LOX IMVI melanoma = system: LOX IMVI melanoma
M14 melanoma = system: M14 melanoma
MALME-3M melanoma = system: MALME-3M melanoma
MCF7 breast = system: MCF7 breast
MDA-MB-231 breast = system: MDA-MB-231 breast
MDA-MB-435 = system: MDA-MB-435
MOLT-4 leukemia = system: MOLT-4 leukemia
NCI-H226 lung = system: NCI-H226 lung
NCI-H23 lung = system: NCI-H23 lung
NCI-H460 lung = system: NCI-H460 lung
NCI-H522 lung = system: NCI-H522 lung
NCI/ADR-RES ovarian = system: NCI/ADR-RES ovarian
OVCAR-3 ovarian = system: OVCAR-3 ovarian
OVCAR-4 ovarian = system: OVCAR-4 ovarian
OVCAR-8 ovarian = system: OVCAR-8 ovarian
PC-3 prostate = system: PC-3 prostate
RPMI-8226 leukemia = system: RPMI-8226 leukemia
RXF 393 renal = system: RXF 393 renal
SF-268 CNS = system: SF-268 CNS
SF-295 CNS = system: SF-295 CNS
SF-539 CNS = system: SF-539 CNS
SK-MEL-2 melanoma = system: SK-MEL-2 melanoma
SK-MEL-28 melanoma = system: SK-MEL-28 melanoma
SK-OV-3 ovarian = system: SK-OV-3 ovarian
SN12C renal = system: SN12C renal
SNB-19 CNS = system: SNB-19 CNS
SNB-75 CNS = system: SNB-75 CNS
SR leukemia = system: SR leukemia
SW-620 colon = system: SW-620 colon
T-47D breast = system: T-47D breast
TK-10 renal = system: TK-10 renal
U251 CNS = system: U251 CNS
UACC-257 melanoma = system: UACC-257 melanoma
UACC-62 melanoma = system: UACC-62 melanoma
UO-31 renal = system: UO-31 renal

What does the source list for `CCc1cccc2c3c(sc12)C(c1ccc(Cl)cc1)C(C#N)=C(/N=C/c1ccc(Cl)cc1)O3` (configuration not stated)?
GI50 (786-0 renal): 1630 nM; TGI (786-0 renal): > 50000 nM; GI50 (A498 renal): 280 nM; TGI (A498 renal): 4920 nM; GI50 (A549 NSCLC): 670 nM; TGI (A549 NSCLC): > 50000 nM; GI50 (ACHN renal): 779 nM; TGI (ACHN renal): > 50000 nM; GI50 (BT-549 breast): 2360 nM; TGI (BT-549 breast): > 50000 nM; GI50 (CAKI-1 renal): 1290 nM; TGI (CAKI-1 renal): > 50000 nM; GI50 (CCRF-CEM leukemia): 892 nM; TGI (CCRF-CEM leukemia): > 50000 nM; GI50 (COLO 205 colon): 1590 nM; TGI (COLO 205 colon): > 50000 nM; GI50 (DU-145 prostate): 1270 nM; TGI (DU-145 prostate): > 50000 nM; GI50 (EKVX NSCLC): 1340 nM; TGI (EKVX NSCLC): > 50000 nM; GI50 (HCC-2998 colon): 1080 nM; TGI (HCC-2998 colon): > 50000 nM; GI50 (HCT-116 colon): 347 nM; TGI (HCT-116 colon): > 50000 nM; GI50 (HCT-15 colon): 317 nM; TGI (HCT-15 colon): > 50000 nM; GI50 (HL-60(TB) leukemia): 577 nM; TGI (HL-60(TB) leukemia): > 50000 nM; GI50 (HOP-62 NSCLC): 2080 nM; TGI (HOP-62 NSCLC): 22300 nM; GI50 (HOP-92 NSCLC): 7660 nM; TGI (HOP-92 NSCLC): 45500 nM; GI50 (HS 578T breast): 1180 nM; TGI (HS 578T breast): 35100 nM; GI50 (HT29 colon): 1200 nM; TGI (HT29 colon): > 50000 nM; GI50 (IGROV1 ovarian): 377 nM; TGI (IGROV1 ovarian): > 50000 nM; GI50 (K-562 leukemia): 234 nM; TGI (K-562 leukemia): > 50000 nM; GI50 (KM12 colon): 417 nM; TGI (KM12 colon): > 50000 nM; GI50 (LOX IMVI melanoma): 905 nM; TGI (LOX IMVI melanoma): > 50000 nM; GI50 (M14 melanoma): 582 nM; TGI (M14 melanoma): > 50000 nM; GI50 (MALME-3M melanoma): 4720 nM; TGI (MALME-3M melanoma): > 50000 nM; GI50 (MCF7 breast): 248 nM; TGI (MCF7 breast): > 50000 nM; GI50 (MDA-MB-231 breast): 2400 nM; TGI (MDA-MB-231 breast): > 50000 nM; GI50 (MDA-MB-435): 162 nM; TGI (MDA-MB-435): 788 nM; GI50 (MOLT-4 leukemia): 1650 nM; TGI (MOLT-4 leukemia): > 50000 nM; GI50 (NCI-H226 lung): 6310 nM; TGI (NCI-H226 lung): > 50000 nM; GI50 (NCI-H23 lung): 2510 nM; TGI (NCI-H23 lung): > 50000 nM; GI50 (NCI-H460 lung): 1020 nM; TGI (NCI-H460 lung): > 50000 nM; GI50 (NCI-H522 lung): 206 nM; TGI (NCI-H522 lung): 2960 nM; GI50 (NCI/ADR-RES ovarian): 214 nM; TGI (NCI/ADR-RES ovarian): 8380 nM; GI50 (OVCAR-3 ovarian): 433 nM; TGI (OVCAR-3 ovarian): 25200 nM; GI50 (OVCAR-4 ovarian): > 50000 nM; TGI (OVCAR-4 ovarian): > 50000 nM; GI50 (OVCAR-8 ovarian): 1600 nM; TGI (OVCAR-8 ovarian): > 50000 nM; GI50 (PC-3 prostate): 556 nM; TGI (PC-3 prostate): > 50000 nM; GI50 (RPMI-8226 leukemia): 1060 nM; TGI (RPMI-8226 leukemia): > 50000 nM; GI50 (RXF 393 renal): 578 nM; TGI (RXF 393 renal): 2660 nM; GI50 (SF-268 CNS): 10900 nM; TGI (SF-268 CNS): > 50000 nM; GI50 (SF-295 CNS): 177 nM; TGI (SF-295 CNS): 806 nM; GI50 (SF-539 CNS): 755 nM; TGI (SF-539 CNS): 2090 nM; GI50 (SK-MEL-2 melanoma): 797 nM; TGI (SK-MEL-2 melanoma): 23600 nM; GI50 (SK-MEL-28 melanoma): 9500 nM; TGI (SK-MEL-28 melanoma): > 50000 nM; GI50 (SK-OV-3 ovarian): 2790 nM; TGI (SK-OV-3 ovarian): > 50000 nM; GI50 (SN12C renal): 1930 nM; TGI (SN12C renal): > 50000 nM; GI50 (SNB-19 CNS): 1200 nM; TGI (SNB-19 CNS): 15800 nM; GI50 (SNB-75 CNS): 104 nM; TGI (SNB-75 CNS): 1220 nM; GI50 (SR leukemia): 290 nM; TGI (SR leukemia): 36300 nM; GI50 (SW-620 colon): 360 nM; TGI (SW-620 colon): > 50000 nM; GI50 (T-47D breast): 1130 nM; TGI (T-47D breast): > 50000 nM; GI50 (TK-10 renal): 8460 nM; TGI (TK-10 renal): > 50000 nM; GI50 (U251 CNS): 1660 nM; TGI (U251 CNS): 17000 nM; GI50 (UACC-257 melanoma): 21400 nM; TGI (UACC-257 melanoma): > 50000 nM; GI50 (UACC-62 melanoma): 306 nM; TGI (UACC-62 melanoma): 44500 nM; GI50 (UO-31 renal): 1690 nM; TGI (UO-31 renal): > 50000 nM
